Columns and labels:
[1] = test system: Phosphorylated Ribosomal Protein S6 (RPS6) in THP-1 cells; assay: THP-1 RPS6 ELISA Assay; type: cell-based, Human; details: Homo sapiens, serum starved, 2 hours compound, 10 nM MCP-1 for 15 minutes, Phospho-RPS6 ELISA, read-out: PI3Kγ_THP1_RPS6_ELISA IC50
Method: Example A. THP-1 RPS6 ELISA Assay
To measure the Phosphorylated Ribosomal Protein S6 (RPS6) in cell lysates, THP-1 cells (Human Acute Monocytic Leukemia) are purchased from ATCC (Manassas, VA) and maintained in RPMI with 10% FBS (Gibco/Life Technologies, Carlsbad, CA). For the assay, THP-1 cells are serum starved overnight in RPMI, then plated in RPMI (2×10^5 cells/well in 90 μL) into 96-well flat-bottom tissue culture treated plates (Corning, Corning, NY), in the presence or absence of a concentration range of test compounds. Covered plates are incubated for 2 hours at 37° C., 5% CO2 then treated with or without 10 nM MCP-1(MYBioSource, San Diego, CA) for 15 minutes at 37° C., 5% CO2. Plates are centrifuged at 1600 RPM and supernatants are removed. Cells are lysed in Lysis Buffer (Cell Signaling, Danvers, MA) with Protease Inhibitor (Calbiochem/EMD, Germany), PMSF (Sigma, St Louis MO), HALTS (Thermo Fisher, Rockford, IL) for 30 min on wet ice. Cell lysates are frozen at −80° C. before testing. The lysates are tested in the Human/Mouse/Rat Phospho-RPS6 ELISA (R&D Systems, Inc. Minn, MN). The plate is measured using a microplate reader (SpectraMax M5—Molecular Devices, LLC Sunnyvale, CA) set to 450 nm with a wavelength correction of 540. IC50 determination is performed by fitting the curve of inhibitor percent inhibition versus the log of the inhibitor concentration using the GraphPad Prism 5.0 software.

[2] = target: PI3Kδ (p110δ/p85α) Recombinant Human Protein (Homo sapiens (Human), UniProt O00329); assay: PI3Kδ Scintillation Proximity Assay; type: biochemical; details: 20 μM PIP2, 2 μM ATP, SPA
From the text: Example C. PI3Kδ Scintillation Proximity Assay Materials: [γ-^33P]ATP (10 mCi/mL) and Wheat Germ Agglutinin (WGA) YSi SPA Scintillation Beads was purchased from Perkin Elmer (Waltham, MA). Lipid kinase substrate, D-myo-Phosphatidylinositol 4,5-bisphosphate (PtdIns(4,5)P2)D (+)-sn-1,2-di-O-octanoylglyceryl, 3-O-phospho linked (PIP2), CAS 204858-53-7, was purchased from Echelon Biosciences (Salt Lake City, UT). PI3Kδ (p110δ/p85α) Recombinant Human Protein was purchased from Eurofins (St Charles, MO). ATP, MgCl2, DTT, EDTA, MOPS and CHAPS were purchased from Sigma Aldrich (St. Louis, MO). The kinase reaction was conducted in polystyrene 384-well Greiner Bio-one white plate from Thermo Fisher Scientific in a final volume of 25 μL. Inhibitors were first diluted serially in DMSO and added to the plate wells before the addition of other reaction components. The final concentration of DMSO in the assay was 2%. The PI3Kδ assay was carried out at room temperature in 20 mM MOPS, pH 6.7, 10 mM MgCl2, 5 mM DTT and CHAPS 0.03%. Reactions were initiated by the addition of ATP, the final reaction mixture consisted of 20 μM PIP2, 2 μM ATP, 0.5 μCi [γ-^33P] ATP, 3.4 nM PI3Kδ. Reactions were incubated for 120 min and terminated by the addition of 40 μL SPA beads suspended in quench buffer: 163 mM potassium phosphate pH 7.8, 20% glycerol, 25 mM EDTA. The final concentration of SPA beads is 1.0 mg/mL. After the plate sealing, plates were shaken overnight at room temperature and centrifuged at 1500 rpm for 10 min, the radioactivity of the product was determined by scintillation counting on Topcount (PerkinElmer). IC50 determination was performed by fitting the curve of percent of the solvent control activity versus the log of the inhibitor concentration using the GraphPad Prism 6.0 software.

[3] = target: PI3Kγ (p110γ) Recombinant Human Protein (Homo sapiens (Human), UniProt P48736); assay: PI3K-γ Scintillation Proximity Assay; type: biochemical; details: 20 μM PIP2, 2 μM ATP, SPA
From the text: Example B. PI3K-γ Scintillation Proximity Assay Materials: [γ-^33P]ATP (10 mCi/mL) and Wheat Germ Agglutinin (WGA) YSi SPA Scintillation Beads was purchased from Perkin Elmer (Waltham, MA). Lipid kinase substrate, D-myo-Phosphatidylinositol 4,5-bisphosphate (PtdIns(4,5)P2)D (+)-sn-1,2-di-O-octanoylglyceryl, 3-O-phospho linked (PIP2), CAS 204858-53-7, was purchased from Echelon Biosciences (Salt Lake City, UT). PI3Kγ (p110γ) Recombinant Human Protein was purchased from Life technology (Grand Island, NY). ATP, MgCl2, DTT, EDTA, MOPS and CHAPS were purchased from Sigma Aldrich (St. Louis, MO). The kinase reaction was conducted in polystyrene 384-well Greiner Bio-one white plate from Thermo Fisher Scientific in a final volume of 25 μL. Inhibitors were first diluted serially in DMSO and added to the plate wells before the addition of other reaction components. The final concentration of DMSO in the assay was 2%. The PI3Kγ assay was carried out at room temperature in 20 mM MOPS, pH 6.7, 10 mM MgCl2, 5 mM DTT and CHAPS 0.03%. Reactions were initiated by the addition of ATP, the final reaction mixture consisted of 20 μM PIP2, 2 μM ATP, 0.5 μCi [γ-^33P] ATP, 13 nM PI3Kγ. Reactions were incubated for 120 min and terminated by the addition of 40 μL SPA beads suspended in quench buffer: 163 mM potassium phosphate pH 7.8, 20% glycerol, 25 mM EDTA. The final concentration of SPA beads is 1.0 mg/mL. After the plate sealing, plates were shaken overnight at room temperature and centrifuged at 1500 rpm for 10 min, the radioactivity of the product was determined by scintillation counting on Topcount (Perkin-Elmer). IC50 determination was performed by fitting the curve of percent of the solvent control activity versus the log of the inhibitor concentration using the GraphPad Prism 6.0 software.

PI3Kγ (p110γ) Recombinant Human Protein, sequence (P48736 whole entry): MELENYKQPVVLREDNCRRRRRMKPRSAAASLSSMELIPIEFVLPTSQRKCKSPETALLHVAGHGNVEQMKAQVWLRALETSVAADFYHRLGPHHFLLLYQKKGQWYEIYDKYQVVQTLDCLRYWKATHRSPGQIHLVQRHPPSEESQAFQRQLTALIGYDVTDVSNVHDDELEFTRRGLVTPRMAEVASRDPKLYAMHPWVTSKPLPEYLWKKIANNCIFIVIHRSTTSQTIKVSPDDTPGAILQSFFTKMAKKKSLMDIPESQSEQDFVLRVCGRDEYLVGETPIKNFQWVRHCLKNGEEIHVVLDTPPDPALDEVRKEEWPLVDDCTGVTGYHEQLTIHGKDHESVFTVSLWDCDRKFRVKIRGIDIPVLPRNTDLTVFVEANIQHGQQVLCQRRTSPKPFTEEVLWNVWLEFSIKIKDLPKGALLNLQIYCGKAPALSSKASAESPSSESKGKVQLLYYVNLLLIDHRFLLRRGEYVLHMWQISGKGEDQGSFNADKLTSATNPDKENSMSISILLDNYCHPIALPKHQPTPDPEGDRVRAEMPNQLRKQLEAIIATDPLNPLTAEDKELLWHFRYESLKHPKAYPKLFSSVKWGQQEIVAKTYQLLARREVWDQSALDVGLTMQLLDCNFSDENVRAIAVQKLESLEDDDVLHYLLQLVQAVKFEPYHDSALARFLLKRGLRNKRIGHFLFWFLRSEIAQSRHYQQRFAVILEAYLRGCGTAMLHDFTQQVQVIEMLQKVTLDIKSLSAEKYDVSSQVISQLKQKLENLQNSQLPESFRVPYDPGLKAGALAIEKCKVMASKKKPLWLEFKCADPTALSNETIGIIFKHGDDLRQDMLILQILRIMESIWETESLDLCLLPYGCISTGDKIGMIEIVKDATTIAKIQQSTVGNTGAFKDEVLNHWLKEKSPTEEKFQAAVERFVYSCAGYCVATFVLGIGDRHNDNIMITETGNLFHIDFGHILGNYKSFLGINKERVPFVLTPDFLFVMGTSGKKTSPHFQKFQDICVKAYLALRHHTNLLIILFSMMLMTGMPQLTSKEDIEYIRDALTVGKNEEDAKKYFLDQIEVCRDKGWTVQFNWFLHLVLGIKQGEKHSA
PI3Kδ (p110δ/p85α) Recombinant Human Protein, sequence (O00329 whole entry): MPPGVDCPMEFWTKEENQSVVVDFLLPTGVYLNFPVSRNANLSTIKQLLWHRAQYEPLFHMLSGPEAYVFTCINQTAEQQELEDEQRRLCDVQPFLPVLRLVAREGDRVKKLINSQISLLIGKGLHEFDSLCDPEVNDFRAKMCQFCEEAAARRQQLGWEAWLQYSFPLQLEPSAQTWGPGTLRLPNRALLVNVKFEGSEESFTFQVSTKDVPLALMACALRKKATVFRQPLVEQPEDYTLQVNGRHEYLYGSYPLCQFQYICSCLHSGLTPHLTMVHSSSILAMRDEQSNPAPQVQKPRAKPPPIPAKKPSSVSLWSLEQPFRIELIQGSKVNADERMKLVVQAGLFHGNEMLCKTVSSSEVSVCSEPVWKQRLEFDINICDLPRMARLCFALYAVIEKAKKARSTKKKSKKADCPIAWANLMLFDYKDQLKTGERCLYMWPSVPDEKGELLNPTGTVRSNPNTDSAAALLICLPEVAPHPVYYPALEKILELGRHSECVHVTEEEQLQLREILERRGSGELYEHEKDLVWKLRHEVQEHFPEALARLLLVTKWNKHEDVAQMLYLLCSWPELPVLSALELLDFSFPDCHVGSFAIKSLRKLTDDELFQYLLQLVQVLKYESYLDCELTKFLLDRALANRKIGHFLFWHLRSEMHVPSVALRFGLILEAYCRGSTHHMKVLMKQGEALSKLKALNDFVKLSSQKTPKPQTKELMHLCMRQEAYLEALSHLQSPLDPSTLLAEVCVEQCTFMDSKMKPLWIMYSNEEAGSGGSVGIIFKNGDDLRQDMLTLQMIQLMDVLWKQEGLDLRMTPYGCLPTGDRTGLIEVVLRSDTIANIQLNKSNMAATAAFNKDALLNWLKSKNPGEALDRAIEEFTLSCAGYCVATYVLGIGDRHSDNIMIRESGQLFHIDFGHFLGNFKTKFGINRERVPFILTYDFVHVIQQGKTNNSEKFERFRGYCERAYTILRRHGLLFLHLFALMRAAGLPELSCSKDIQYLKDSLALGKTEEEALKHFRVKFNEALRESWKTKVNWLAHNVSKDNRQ
PI3Kδ (p110δ/p85α) Recombinant Human Protein, sequence (P27986 whole entry partner): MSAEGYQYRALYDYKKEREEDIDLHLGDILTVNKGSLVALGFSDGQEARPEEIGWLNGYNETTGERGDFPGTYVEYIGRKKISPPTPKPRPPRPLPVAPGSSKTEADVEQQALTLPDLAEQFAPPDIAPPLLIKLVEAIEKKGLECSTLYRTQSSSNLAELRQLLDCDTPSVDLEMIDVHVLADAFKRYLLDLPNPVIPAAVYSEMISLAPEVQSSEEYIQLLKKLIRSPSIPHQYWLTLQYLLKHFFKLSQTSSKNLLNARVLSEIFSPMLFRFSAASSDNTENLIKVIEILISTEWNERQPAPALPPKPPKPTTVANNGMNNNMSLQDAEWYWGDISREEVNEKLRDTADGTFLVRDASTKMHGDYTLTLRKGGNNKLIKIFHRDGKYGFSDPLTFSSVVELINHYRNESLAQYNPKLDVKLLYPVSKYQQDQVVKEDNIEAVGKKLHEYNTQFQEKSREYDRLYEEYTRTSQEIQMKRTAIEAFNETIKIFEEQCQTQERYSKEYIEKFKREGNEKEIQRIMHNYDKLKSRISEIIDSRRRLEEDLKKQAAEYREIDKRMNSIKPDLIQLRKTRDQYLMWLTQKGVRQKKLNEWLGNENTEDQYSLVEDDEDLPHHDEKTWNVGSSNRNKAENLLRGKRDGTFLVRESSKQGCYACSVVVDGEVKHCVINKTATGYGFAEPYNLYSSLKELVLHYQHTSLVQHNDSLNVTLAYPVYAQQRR

Row | SMILES | IC50 [1] [nM] | IC50 [2] [nM] | IC50 [3] [nM]
1 | [2H]C([2H])([2H])c1ccc(C(O)(C(C)O)C(F)(F)F)cc1-c1cnc(N)c(C(=O)NC2CCOCC2)n1 (single isomer, unassigned) [Example 19, 3-Amino-6-(2-(methyl-d3)-5-(1,1,1-trifluoro-2,3-dihydroxybutan-2-yl)phenyl)-N-(tetrahydro-2H-pyran-4-yl)pyrazine-2-carboxamide] | 100 to 500 |  | 
2 | Cc1ccc(C(O)(CO)C(F)(F)F)cc1-c1cnc(N)c(C2CC(C(=O)N3CC(O)C3)C2)n1 (single isomer, unassigned) [Example 24, (3-(3-Amino-6-(2-methyl-5-(1,1,1-trifluoro-2,3-dihydroxypropan-2-yl)phenyl)pyrazin-2-yl)cyclobutyl)(3-hydroxyazetidin-1-yl)methanone] | 100 to 500 |  | 
3 | Cc1ccc([C@](O)(CO)C(F)F)cc1-c1cnc(N)c(C(=O)N[C@@H](C)CO)n1 (single isomer, unassigned) [Example 43] | 100 to 500 | 100 to 500 | 
4 | [2H]C([2H])([2H])c1ccc(C(O)(C(O)C(F)(F)F)C(F)(F)F)cc1-c1cnc(N)c(-c2c[nH]nc2C)n1 (stereo not shown) [Example 20, 2-(3-(5-Amino-6-(3-methyl-1H-pyrazol-4-yl)pyrazin-2-yl)-4-(methyl-d3)phenyl)-1,1,1,4,4,4-hexafluorobutane-2,3-diol] |  | 100 to 500 | 
5 | Cc1ccc(C(O)(C(C)(C)O)C(F)(F)F)cc1-c1cnc(N)c(C(=O)NC2CCOCC2)n1 (stereo not shown) [Example 22, 3-Amino-6-(2-methyl-5-(1,1,1-trifluoro-2,3-dihydroxy-3-methylbutan-2-yl)phenyl)-N-(tetrahydro-2H-pyran-4-yl)pyrazine-2-carboxamide] |  | 100 to 500 | 
6 | [2H]C([2H])([2H])c1ccc([C@](O)(CO)C(F)(F)F)cc1-c1cnc(N)c(C(=O)N[C@H](C)CO)n1 [Example 36, 3-Amino-N-((R)-1-hydroxypropan-2-yl)-6-(2-(methyl-d3)-5-((S)-1,1,1-trifluoro-2,3-dihydroxypropan-2-yl)phenyl)pyrazine-2-carboxamide] | 100 to 500 |  | 
7 | [2H]C([2H])([2H])c1ccc([C@](O)(CO)C(F)F)cc1-c1cnc(N)c(C(=O)N[C@H]2CCCC[C@@H]2O)n1 [Example 38, 3-Amino-6-(5-((S)-1,1-difluoro-2,3-dihydroxypropan-2-yl)-2-(methyl-d3)phenyl)-N-((1S,2S)-2-hydroxycyclohexyl)pyrazine-2-carboxamide] | 100 to 500 |  | 
8 | [2H]C([2H])([2H])c1ccc([C@](O)(CO)C(F)F)cc1-c1cnc(N)c(C(=O)N[C@@H]2CCCC[C@H]2O)n1 [Example 39, 3-Amino-6-(5-((S)-1,1-difluoro-2,3-dihydroxypropan-2-yl)-2-(methyl-d3)phenyl)-N-((1R,2R)-2-hydroxycyclohexyl)pyrazine-2-carboxamide] | 100 to 500 |  | 
9 | Cc1ccc([C@](O)(CO)C(F)F)cc1-c1cnc(N)c(C(=O)NC(C)C)n1 [Example 46, (S)-3-Amino-6-(5-(1,1-difluoro-2,3-dihydroxypropan-2-yl)-2-methylphenyl)-N-isopropylpyrazine-2-carboxamide] |  | ≤ 100 | ≤ 100

The remaining lines, values ahead:

Row | IC50 [1] [nM] | IC50 [2] [nM] | IC50 [3] [nM] | SMILES
10 |  | ≤ 100 | ≤ 100 | Cc1ccc(C(O)(CO)C(F)(F)F)cc1-c1cnc(N)c(-c2cnn(C)c2)n1 (stereo not shown) [Example 2, 2-(3-(5-Amino-6-(1-methyl-1H-pyrazol-4-yl)pyrazin-2-yl)-4-methylphenyl)-3,3,3-trifluoropropane-1,2-diol]
11 |  | ≤ 100 | ≤ 100 | Cc1ccc(C(O)(CO)C(F)(F)F)cc1-c1cnc(N)c(-c2cn[nH]c2)n1 (stereo not shown) [Example 3, 2-(3-(5-Amino-6-(1H-pyrazol-4-yl)pyrazin-2-yl)-4-methylphenyl)-3,3,3-trifluoropropane-1,2-diol]
12 |  | ≤ 100 | ≤ 100 | Cc1cc(-c2nc(-c3cc(C(O)(CO)C(F)(F)F)ccc3C)cnc2N)on1 (stereo not shown) [Example 4, 2-(3-(5-Amino-6-(3-methylisoxazol-5-yl)pyrazin-2-yl)-4-methylphenyl)-3,3,3-trifluoropropane-1,2-diol]
13 |  | ≤ 100 | ≤ 100 | Cc1ccc(C(O)(CO)C(F)(F)F)cc1-c1cnc(N)c(-c2cnsc2)n1 (stereo not shown) [Example 5, 2-(3-(5-Amino-6-(isothiazol-4-yl)pyrazin-2-yl)-4-methylphenyl)-3,3,3-trifluoropropane-1,2-diol]
14 |  | ≤ 100 | ≤ 100 | Cc1ccc(C(O)(CO)C(F)(F)F)cc1-c1cnc(N)c(-c2ccns2)n1 (stereo not shown) [Example 6, 2-(3-(5-Amino-6-(isothiazol-5-yl)pyrazin-2-yl)-4-methylphenyl)-3,3,3-trifluoropropane-1,2-diol]
15 |  | ≤ 100 | ≤ 100 | Cc1cc(-c2nc(-c3cc(C(O)(CO)C(F)(F)F)ccc3C)cnc2N)sn1 (stereo not shown) [Example 7, 2-(3-(5-amino-6-(3-methylisothiazol-5-yl)pyrazin-2-yl)-4-methylphenyl)-3,3,3-trifluoropropane-1,2-diol]
16 |  | ≤ 100 | ≤ 100 | Cc1ncc(-c2nc(-c3cc(C(O)(CO)C(F)(F)F)ccc3C)cnc2N)s1 (stereo not shown) [Example 10, 2-(3-(5-Amino-6-(2-methylthiazol-5-yl)pyrazin-2-yl)-4-methvlphenyl)-3,3,3-trifluoropropane-1,2-diol]
17 |  | ≤ 100 | ≤ 100 | Cc1ccc(C(O)(CO)C(F)(F)F)cc1-c1cnc(N)c(-c2cnco2)n1 (stereo not shown) [Example 11, 2-(3-(5-Amino-6-(oxazol-5-yl)pyrazin-2-yl)-4-methylphenyl)-3,3,3-trifluoropropane-1,2-diol]
18 |  | ≤ 100 | ≤ 100 | Cc1ccc(C(O)(CO)C(F)(F)F)cc1-c1cnc(N)c(-n2ccnn2)n1 (stereo not shown) [Example 13, 2-(3-(5-Amino-6-(1H-1,2,3-triazol-1-yl)pyrazin-2-yl)-4-methylphenyl)-3,3,3-trifluoropropane-1,2-diol]
19 | 100 to 500 | 100 to 500 |  | Cc1ccc(C(O)(CO)C(F)(F)F)cc1-c1cnc(N)c(C2CN(S(=O)(=O)c3ccn(C)n3)C2)n1 (stereo not shown) [Example 23, 2-(3-(5-Amino-6-(1-((1-methyl-1H-pyrazol-3-yl)sulfonyl)azetidin-3-yl)pyrazin-2-yl)-4-methylphenyl)-3,3,3-trifluoropropane-1,2-diol]
